Read-outs that look alike come from different tables or passages of the source.
Molecular target: human NAMPT (Homo sapiens, UniProt P43490)
Assay: Human recombinant enzyme assay (NMN fluorescence biochemical assay, activation of NAMPT)
Description: Compounds described herein were assayed for their ability to stimulate the synthesis of nicotinamide mononucleotide (NMN) by the enzyme NAMPT. The human recombinant enzyme assay measures the activation of the enzyme activity by compounds using recombinant enzyme and substrates in a buffered cell-free system. The assay conditions closely mimic cellular environments. Dose responses were measured using an assay to detect the formation of nicotinamide mono-nucleotide. All experiments were performed in the 384-well format. […] Enzyme reactions were initiated with the addition of 10 μL of a solution containing the substrates. The final assay conditions were as follows: 6 nM human NAMPT, 2.5 mM ATP, 20 μM PRPP and 150 μM nicotinamide in 50 mM HEPES, pH 7.2, 1 mM DTT, 1 mM CHAPS 50 mM NaCl, 100 mM MgCl2. Following an incubation of 60 min at ambient temperature, 10 μL of 20% acetophenone in DMSO was added, followed by 10 μL of 2 M KOH and 40 μL of formic acid. The plates were read for fluorescence (Excitation/Emission=355 nm/460 nm) using an EnVision plate reader after 40 mins of incubation at ambient temperature.

[1] = Table A, human recombinant NAMPT, NMN formation, 60 min
[2] = Table A, human recombinant NAMPT, NMN formation, 60 min, read-out: EC50 Human

Chain of human NAMPT (P43490 whole entry): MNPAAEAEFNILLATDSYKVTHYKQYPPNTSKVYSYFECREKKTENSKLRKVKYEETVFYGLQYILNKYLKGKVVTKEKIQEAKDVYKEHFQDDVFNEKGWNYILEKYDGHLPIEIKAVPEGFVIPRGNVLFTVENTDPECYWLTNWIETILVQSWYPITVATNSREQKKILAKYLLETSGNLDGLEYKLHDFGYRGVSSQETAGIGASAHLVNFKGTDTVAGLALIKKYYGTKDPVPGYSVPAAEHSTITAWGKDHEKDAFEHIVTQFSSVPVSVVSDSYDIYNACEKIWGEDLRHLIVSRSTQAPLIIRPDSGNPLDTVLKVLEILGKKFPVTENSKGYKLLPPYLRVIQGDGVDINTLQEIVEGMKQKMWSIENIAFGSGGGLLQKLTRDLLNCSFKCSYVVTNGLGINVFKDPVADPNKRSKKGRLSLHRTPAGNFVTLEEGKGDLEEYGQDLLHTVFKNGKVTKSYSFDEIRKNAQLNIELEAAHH

AC1.4 Human [1]	EC50 [2]	SMILES	EC50
2.6 µM	6.1 µM	O=C(NCc1ccc(Cl)cc1)NC1CC2(CC(CNC(=O)C3CCCC3)C2)C1 (centres unmarked) [Compound 251, N-((6-(3-(4-chlorobenzyl)ureido)spiro[3.3]heptan-2-yl)methyl)cyclopentanecarboxamide]	
4.4 µM	4.4 µM	COc1ccc(CNC(=O)NC2CC3(C2)CC(C(=O)N[C@H]2C[C@H](c4ccccc4)C2)C3)cc1 (some centres unmarked) [Compound 63, 6-(3-(4-methoxybenzyl)ureido)-N-((1r,3r)-3-phenylcyclobutyl)spiro[3.3]heptane-2-carboxamide]	
1.4 µM	6.5 µM	O=C(NCCCCC1CCN(C(=O)C2CCOCC2)CC1)NCc1ccc(Cl)cc1 [Compound 300, 1-(4-chlorobenzyl)-3-(4-(1-(tetrahydro-2H-pyran-4-carbonyl)piperidin-4-yl)butyl)urea]	
1.9 µM	0.3 µM	CN(C(=O)CCCCCNC(=O)NCc1ccc(Cl)cc1)c1ccccc1F [Compound 274, 6-(3-(4-chlorobenzyl)ureido)-N-(2-fluorophenyl)-N-methylhexanamide]	
9.9 µM		NC(=O)c1ccc(CNC(=O)NC2CC(c3ccccc3)C2)cc1 (centres unmarked) [Compound 4, 4-((3-(3-phenylcyclobutyl)ureido)methyl)benzamide]	
3.9 µM	47.1 µM	COc1ccc(CNC(=O)NC2CC3(C2)CN(C(=O)c2ccccc2C)C3)cc1 [Compound 148, 1-(4-methoxybenzyl)-3-(2-(2-methylbenzoyl)-2-azaspiro[3.3]heptan-6-yl)urea]	
15.4 µM	40.2 µM	COC(=O)C1CC2(CC(NC(=O)NCc3ccc(OC)cc3)C2)C1 (centres unmarked) [Compound 35, Methyl 6-(3-(4-methoxybenzyl)ureido)spiro[3.3]heptane-2-carboxylate]	
3.8 µM	51.6 µM	COc1ccc(CNC(=O)NC2CC3(C2)CC(C(=O)N2CCN(C)CC2CO)C3)cc1 (centres unmarked) [Compound 113, 1-(6-(2-(hydroxymethyl)-4-methylpiperazine-1-carbonyl)spiro[3.3]heptan-2-yl)-3-(4-methoxybenzyl)urea]	
5.8 µM	58.2 µM	COc1ccc(CNC(=O)NC2CC3(C2)CN(C(=O)c2ccc(C(F)(F)F)cc2)C3)cc1 [Compound 147, 1-(4-methoxybenzyl)-3-(2-(4-(trifluoromethyl)benzoyl)-2-azaspiro[3.3]heptan-6-yl)urea]	
1.8 µM	7.1 µM	Cc1ccc(NC(=O)CCCCCNC(=O)NCc2ccc(Cl)cc2)cn1 [Compound 278, 6-(3-(4-chlorobenzyl)ureido)-N-(6-methylpyridin-3-yl)hexanamide]	
0.2 µM	2.7 µM	COc1ccc(CNC(=O)NC2CC3(C2)CC(C(=O)N2CCCc4cc(F)ccc42)C3)cc1 (centres unmarked) [Compound 101, 1-(6-(6-fluoro-1,2,3,4-tetrahydroquinoline-1-carbonyl)spiro[3.3]heptan-2-yl)-3-(4-methoxybenzyl)urea]	
1.9 µM	4.6 µM	O=C(NCCCCC1CCN(C(=O)Cc2ccccc2)CC1)NCc1ccc(Cl)cc1 [Compound 291, 1-(4-chlorobenzyl)-3-(4-(1-(2-phenylacetyl)piperidin-4-yl)butyl)urea]	
2.5 µM	34.9 µM	COc1ccc(CNC(=O)NC2CC3(C2)CC(C(=O)N2CC(c4ccccc4)C2)C3)cc1 (centres unmarked) [Compound 61, 1-(4-methoxybenzyl)-3-(6-(3-phenylazetidine-1-carbonyl)spiro[3.3]heptan-2-yl)urea]	
2.8 µM	42.9 µM	CC(C)(O)CN1CCN(C(=O)CCCCCNC(=O)NCc2ccc(Cl)cc2)CC1 [Compound 261, 1-(4-chlorobenzyl)-3-(6-(4-(2-hydroxy-2-methylpropyl)piperazin-1-yl)-6-oxohexyl)urea]	

SMILES	AC1.4 Human [1]	EC50 [2]	EC50
COc1ccc(CNC(=O)NC2CC3(C2)CC(c2nc4ccccc4o2)C3)cc1 (centres unmarked) [Compound 327, 1-(6-(benzo[d]oxazol-2-yl)spiro[3.3]heptan-2-yl)-3-(4-methoxybenzyl)urea]	4.1 µM		17.4 µM

Reference: US20230348369A1 (Cytokinetics, Inc., priority 2020, published 2023)
